Molecular target: T1, ERR1 (also known as ERR-α or ERR-1) (Homo sapiens, UniProt P11474)
T1 sequence (P11474 193-421 limits assumed): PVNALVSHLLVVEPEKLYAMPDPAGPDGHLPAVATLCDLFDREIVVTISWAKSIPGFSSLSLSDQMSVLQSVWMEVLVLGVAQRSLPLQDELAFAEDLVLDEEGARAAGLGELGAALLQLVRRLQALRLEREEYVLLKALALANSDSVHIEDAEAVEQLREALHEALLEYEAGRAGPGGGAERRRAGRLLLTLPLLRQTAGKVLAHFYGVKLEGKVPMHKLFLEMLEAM
Test: TR-FRET assay (disruption of co-activator peptide binding to ERR1 LBD)
Format: biochemical
Conditions: 6 nM 6His-ERR1LBD, 6 nM GST-SRC-2 peptide; average of 3 independent experiments
Outline: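 Homogeneous TR-FRET measuring displacement of GST-hSRC2 co-activator peptide (6 nM) from His-tagged ERR1 LBD (6 nM), detected with α-GST Eu cryptate (30 nM) and α-His-XL665 (7.5 nM). Buffer 25 mM Tris pH 8, 2.5 mM Hepes, 20 mM KCl, 1 mM DTT, 0.05 mg/mL delipidated BSA; equilibration 4-18 h at 25° C. Hyperbolic dose-response fit, mean of 3 experiments.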

CCN1CC[C@@H](N2C(=O)S/C(=C\c3ccc4c(cnn4Cc4ccc(Cl)cc4C(F)(F)F)c3)C2=O)[C@H](F)C1 [Compound 386, (5Z)-5-({1-[4-Chloro-2-(trifluoromethyl)benzyl]-1H-indazol-5-yl}methylidene)-3-[(3R,4R)-1-ethyl-3-fluoropiperidin-4-yl]-1,3-thiazolidine-2,4-dione]
EC50: 42 nM

CC(C)N1CC[C@@H](N2C(=O)S/C(=C\c3ccc4c(cnn4Cc4ccc(Cl)cc4C(F)(F)F)c3)C2=O)[C@H](F)C1 [Compound 387, (5Z)-5-({1-[4-Chloro-2-(trifluoromethyl)benzyl]-1H-indazol-5-yl}methylidene)-3-[(3R,4R)-3-fluoro-1-(1-methylethyl)piperidin-4-yl]-1,3-thiazolidine-2,4-dione]
EC50: 123 nM

N#CCN1CC[C@@H](N2C(=O)S/C(=C\c3ccc4c(cnn4Cc4ccc(Cl)cc4C(F)(F)F)c3)C2=O)[C@H](F)C1 [Compound 388, {(3R,4R)-4-[(5Z)-5-({1-[4-Chloro-2-(trifluoromethyl)benzyl]-1H-indazol-5-yl}methylidene)-2,4-dioxo-1,3-thiazolidin-3-yl]-3-fluoropiperidin-1-yl}acetonitrile]
EC50: 34 nM

CC(=O)NCCN1C(=O)S/C(=C\c2ccc3c(cnn3Cc3ccc(Cl)cc3C(F)(F)F)c2)C1=O [Compound 389, N-{2-[(5Z)-5-({1-[4-Chloro-2-(trifluoromethyl)benzyl]-1H-indazol-5-yl}methylidene)-2,4-dioxo-1,3-thiazolidin-3-yl]ethyl}acetamide]
EC50: 26 nM

O=C1S/C(=C\c2ccc3c(cnn3Cc3ccc(Cl)cc3C(F)(F)F)c2)C(=O)N1CCNC(=O)C(F)(F)F [Compound 390, N-{2-[(5Z)-5-({1-[4-Chloro-2-(trifluoromethyl)benzyl]-1H-indazol-5-yl}methylidene)-2,4-dioxo-1,3-thiazolidin-3-yl]ethyl}-2,2,2-trifluoroacetamide]
EC50: 64 nM

O=C1S/C(=C\c2ccc3c(cnn3Cc3ccc(Cl)cc3C(F)(F)F)c2)C(=O)N1CCNS(=O)(=O)c1ccccc1 [Compound 391, N-{2-[(5Z)-5-({1-[4-Chloro-2-(trifluoromethyl)benzyl]-1H-indazol-5-yl}methylidene)-2,4-dioxo-1,3-thiazolidin-3-yl]ethyl}benzenesulfonamide]
EC50: 215 nM

O=C1S/C(=C\c2ccc3c(cnn3Cc3ccc(Cl)cc3C(F)(F)F)c2)C(=O)N1CCNS(=O)(=O)c1ccc(C(F)(F)F)cc1 [Compound 392, N-{2-[(5Z)-5-({1-[4-Chloro-2-(trifluoromethyl)benzyl]-1H-indazol-5-yl}methylidene)-2,4-dioxo-1,3-thiazolidin-3-yl]ethyl}-4-(trifluoromethyl) benzenesulfonamide]
EC50: 215 nM

CS(=O)(=O)NCCN1C(=O)S/C(=C\c2ccc3c(cnn3Cc3ccc(Cl)cc3C(F)(F)F)c2)C1=O [Compound 393, N-{2-[(5Z)-5-({1-[4-Chloro-2-(trifluoromethyl)benzyl]-1H-indazol-5-yl}methylidene)-2,4-dioxo-1,3-thiazolidin-3-yl]ethyl}methanesulfonamide]
EC50: 32 nM

CN(CCN1C(=O)S/C(=C\c2ccc3c(cnn3Cc3ccc(Cl)cc3C(F)(F)F)c2)C1=O)C(=O)C(F)(F)F [Compound 394, N-{2-[(5Z)-5-({1-[4-Chloro-2-(trifluoromethyl)benzyl]-1H-indazol-5-yl}methylidene)-2,4-dioxo-1,3-thiazolidin-3-yl]ethyl}-2,2,2-trifluoro-N-methylacetamide]
EC50: 122 nM

CN(CCN1C(=O)S/C(=C\c2ccc3c(cnn3Cc3ccc(Cl)cc3C(F)(F)F)c2)C1=O)S(=O)(=O)c1ccc(C(F)(F)F)cc1 [Compound 395, N-{2-[(5Z)-5-({1-[4-Chloro-2-(trifluoromethyl)benzyl]-1H-indazol-5-yl}methylidene)-2,4-dioxo-1,3-thiazolidin-3-yl]ethyl}-N-methyl-4-(trifluoromethyl) benzenesulfonamide]
EC50: 460 nM
